Tests used:
Assay in all cases: cells
CTV-1 = assay type: functional, cell-based, Homo sapiens;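 further: growth inhibition of the cell line, read out with a cell viability assay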
Description: SANGER: Inhibition of human CTV-1 cell growth in a cell viability assay.

CW-2 = assay type: functional, cell-based, Homo sapiens;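 further: growth inhibition of CW-2 cells, read out by a cell viability assay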
Description: SANGER: Inhibition of human CW-2 cell growth in a cell viability assay.

D283 Med = assay type: functional, cell-based, Homo sapiens
Description: SANGER: Inhibition of human D-283MED cell growth in a cell viability assay.

DJM-1 = assay type: functional, cell-based, Homo sapiens;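 further: growth inhibition of human DJM-1 cells, read out by a cell viability assay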
Description: SANGER: Inhibition of human DJM-1 cell growth in a cell viability assay.

EC-GI-10 = assay type: functional, cell-based, Homo sapiens
Description: SANGER: Inhibition of human EC-GI-10 cell growth in a cell viability assay.

ES4 = assay type: functional, cell-based, Homo sapiens;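 further: growth inhibition of human ES4 cells, read out by a cell viability assay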
Description: SANGER: Inhibition of human ES4 cell growth in a cell viability assay.

EW-16 = assay type: functional, cell-based, Homo sapiens;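 further: growth inhibition of human EW-16 cells, read out as cell viability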
Description: SANGER: Inhibition of human EW-16 cell growth in a cell viability assay.

GCIY = assay type: functional, cell-based, Homo sapiens;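 further: growth inhibition of the human GCIY cell line, read out by a cell viability assay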
Description: SANGER: Inhibition of human GCIY cell growth in a cell viability assay.

GT3TKB = assay type: functional, cell-based, Homo sapiens;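 further: growth inhibition of the cell line, read out with a cell viability assay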
Description: SANGER: Inhibition of human GT3TKB cell growth in a cell viability assay.

HCC1187 = assay type: functional, cell-based, Homo sapiens;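 further: growth inhibition of HCC1187 cells, read out with a cell viability assay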
Description: SANGER: Inhibition of human HCC1187 cell growth in a cell viability assay.

HEL = assay type: functional, cell-based, Homo sapiens;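 further: growth inhibition of HEL cells, read out with a cell viability assay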
Description: SANGER: Inhibition of human HEL cell growth in a cell viability assay.

IA-LM = assay type: functional, cell-based, Homo sapiens;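 further: cell viability assay measuring growth inhibition of human IA-LM cells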
Description: SANGER: Inhibition of human IA-LM cell growth in a cell viability assay.

KARPAS-299 = assay type: functional, cell-based, Homo sapiens
Description: SANGER: Inhibition of human KARPAS-299 cell growth in a cell viability assay.

KS-1 = assay type: functional, cell-based, Homo sapiens;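 further: growth inhibition of KS-1 cells, read out with a cell viability assay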
Description: SANGER: Inhibition of human KS-1 cell growth in a cell viability assay.

LAN-6 = assay type: functional, cell-based, Homo sapiens;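 further: growth inhibition of LAN-6 cells, determined with a cell viability assay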
Description: SANGER: Inhibition of human LAN-6 cell growth in a cell viability assay.

LB2518-MEL = assay type: functional, cell-based, Homo sapiens;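 further: growth inhibition of human LB2518-MEL cells, measured with a cell viability assay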
Description: SANGER: Inhibition of human LB2518-MEL cell growth in a cell viability assay.

MHH-PREB-1 = assay type: functional, cell-based, Homo sapiens;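 further: cell viability assay measuring inhibition of proliferation of human MHH-PREB-1 cells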
Description: SANGER: Inhibition of human MHH-PREB-1 cell growth in a cell viability assay.

MN-60 = assay type: functional, cell-based, Homo sapiens;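 further: growth inhibition of the MN-60 cell line, determined with a cell viability assay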
Description: SANGER: Inhibition of human MN-60 cell growth in a cell viability assay.

MSTO-211H = assay type: functional, cell-based, Homo sapiens
Description: SANGER: Inhibition of human MSTO-211H cell growth in a cell viability assay.

NB13 = assay type: functional, cell-based, Homo sapiens;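 further: cell viability readout measuring growth inhibition of human NB13 cells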
Description: SANGER: Inhibition of human NB13 cell growth in a cell viability assay.

NB5 = assay type: functional, cell-based, Homo sapiens;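 further: growth inhibition of NB5 cells, read out as cell viability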
Description: SANGER: Inhibition of human NB5 cell growth in a cell viability assay.

NCI-H1155 = assay type: functional, cell-based, Homo sapiens;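 further: cell growth inhibition measured by a viability assay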
Description: SANGER: Inhibition of human NCI-H1155 cell growth in a cell viability assay.

NCI-H1304 = assay type: functional, cell-based, Homo sapiens;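 further: growth inhibition of the cancer cell line, measured in a cell viability assay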
Description: SANGER: Inhibition of human NCI-H1304 cell growth in a cell viability assay.

NCI-H209 = assay type: functional, cell-based, Homo sapiens;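 further: growth inhibition of human NCI-H209 cells, measured by a cell viability assay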
Description: SANGER: Inhibition of human NCI-H209 cell growth in a cell viability assay.

NCI-H2126 = assay type: functional, cell-based, Homo sapiens;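 further: growth inhibition of the cancer cell line, determined with a cell viability readout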
Description: SANGER: Inhibition of human NCI-H2126 cell growth in a cell viability assay.

SNU1 = assay type: functional, cell-based, Homo sapiens; conditions: Homo sapiens, SNU1;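 further: growth inhibition of human NCI-SNU-1 cells, measured with a cell viability assay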
Description: SANGER: Inhibition of human NCI-SNU-1 cell growth in a cell viability assay.

SNU-5 = assay type: functional, cell-based, Homo sapiens;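 further: cell viability readout used to measure growth inhibition in human NCI-SNU-5 cells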
Description: SANGER: Inhibition of human NCI-SNU-5 cell growth in a cell viability assay.

NH-12 = assay type: functional, cell-based, Homo sapiens;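 further: growth inhibition of NH-12 cells, read out with a cell viability assay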
Description: SANGER: Inhibition of human NH-12 cell growth in a cell viability assay.

P30-OHK = assay type: functional, cell-based, Homo sapiens;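 further: growth inhibition of the P30-OHK cell line, read out with a cell viability assay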
Description: SANGER: Inhibition of human P30-OHK cell growth in a cell viability assay.

PSN1 = assay type: functional, cell-based, Homo sapiens;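 further: suppression of growth of human PSN1 cells, read out by a cell viability assay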
Description: SANGER: Inhibition of human PSN1 cell growth in a cell viability assay.

Ramos-2G6-4C10 = assay type: functional, cell-based, Homo sapiens;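 further: growth inhibition of the cell line, measured by a cell viability read-out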
Description: SANGER: Inhibition of human Ramos-2G6-4C10 cell growth in a cell viability assay.

SBC-1 = assay type: functional, cell-based, Homo sapiens;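 further: cell viability assay measuring growth inhibition of the SBC-1 cell line, IC50 being the concentration that halves growth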
Description: SANGER: Inhibition of human SBC-1 cell growth in a cell viability assay.

SCC-15 = assay type: functional, cell-based, Homo sapiens;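 further: growth inhibition of SCC-15 cells, read out with a cell viability assay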
Description: SANGER: Inhibition of human SCC-15 cell growth in a cell viability assay.

SK-N-FI = assay type: functional, cell-based, Homo sapiens;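 further: cell viability assay measuring growth inhibition of human SK-N-FI cells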
Description: SANGER: Inhibition of human SK-N-FI cell growth in a cell viability assay.

SK-NEP-1 = assay type: functional, cell-based, Homo sapiens;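 further: growth inhibition of human SK-NEP-1 cells, read out by a cell viability assay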
Description: SANGER: Inhibition of human SK-NEP-1 cell growth in a cell viability assay.

SNU-C2B = assay type: functional, cell-based, Homo sapiens;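 further: cell viability readout used to measure compound-driven suppression of SNU-C2B cell proliferation, IC50 marking half-maximal growth inhibition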
Description: SANGER: Inhibition of human SNU-C2B cell growth in a cell viability assay.

SW684 = assay type: functional, cell-based, Homo sapiens;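 further: growth inhibition of human SW684 cells, measured by a cell viability assay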
Description: SANGER: Inhibition of human SW684 cell growth in a cell viability assay.

SW 954 = assay type: functional, cell-based, Homo sapiens;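 further: growth inhibition of SW954 human cancer cells, read out as cell viability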
Description: SANGER: Inhibition of human SW954 cell growth in a cell viability assay.

SW982 = assay type: functional, cell-based, Homo sapiens;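 further: growth inhibition of SW982 cells, read out with a cell viability assay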
Description: SANGER: Inhibition of human SW982 cell growth in a cell viability assay.

697 = assay type: functional, cell-based, Homo sapiens
Description: SANGER: Inhibition of human 697 cell growth in a cell viability assay.

AM-38 = assay type: functional, cell-based, Homo sapiens;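 further: growth inhibition of AM-38 cells of human origin, read out by a cell viability assay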
Description: SANGER: Inhibition of human AM-38 cell growth in a cell viability assay.

ATN-1 = assay type: functional, cell-based, Homo sapiens;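 further: growth inhibition of human ATN-1 cells, read out with a cell viability assay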
Description: SANGER: Inhibition of human ATN-1 cell growth in a cell viability assay.

BT-474 = assay type: functional, cell-based, Homo sapiens
Description: SANGER: Inhibition of human BT-474 cell growth in a cell viability assay.

TE-8 = assay type: functional, cell-based, Homo sapiens;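 further: growth inhibition of TE-8 cells, measured with a cell viability readout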
Description: SANGER: Inhibition of human TE-8 cell growth in a cell viability assay.

TE-9 = assay type: functional, cell-based, Homo sapiens;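 further: cell growth inhibition, measured with a cell viability readout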
Description: SANGER: Inhibition of human TE-9 cell growth in a cell viability assay.

U-87 MG = assay type: functional, cell-based, Homo sapiens, U-87MG ATCC;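 further: growth inhibition of the cells measured with a viability assay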
Description: SANGER: Inhibition of human U-87-MG cell growth in a cell viability assay.

COLO-684 = assay type: functional, cell-based, Homo sapiens
Description: SANGER: Inhibition of human COLO-684 cell growth in a cell viability assay.

NCI-H69 = assay type: functional, cell-based, Homo sapiens;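 further: growth inhibition of the cell line, read out with a cell viability assay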
Description: SANGER: Inhibition of human NCI-H69 cell growth in a cell viability assay.

CS(=O)(=O)c1ccc(C(=O)Nc2ccc(Cl)c(-c3ccccn3)c2)c(Cl)c1 [VISMODEGIB]
IC50 (CTV-1; Homo sapiens, CTV-1): > 10 µM
IC50 (CW-2; Homo sapiens, CW-2): > 10 µM
IC50 (D283 Med; Homo sapiens, D283 Med): > 10 µM
IC50 (DJM-1; Homo sapiens, DJM-1): > 10 µM
IC50 (EC-GI-10; Homo sapiens, EC-GI-10): > 10 µM
IC50 (ES4; Homo sapiens, ES4): > 10 µM
IC50 (EW-16; Homo sapiens, EW-16): > 10 µM
IC50 (GCIY; Homo sapiens, GCIY): > 10 µM
IC50 (GT3TKB; Homo sapiens, GT3TKB): > 10 µM
IC50 (HCC1187; Homo sapiens, HCC1187): > 10 µM
IC50 (HEL; Homo sapiens, HEL): > 10 µM
IC50 (IA-LM; Homo sapiens, IA-LM): > 10 µM
IC50 (KARPAS-299; Homo sapiens, KARPAS-299): > 10 µM
IC50 (KS-1; Homo sapiens, KS-1): > 10 µM
IC50 (LAN-6; Homo sapiens, LAN-6): > 10 µM
IC50 (LB2518-MEL; Homo sapiens, LB2518-MEL): > 10 µM
IC50 (MHH-PREB-1; Homo sapiens, MHH-PREB-1): > 10 µM
IC50 (MN-60; Homo sapiens, MN-60): > 10 µM
IC50 (MSTO-211H; Homo sapiens, MSTO-211H): > 10 µM
IC50 (NB13; Homo sapiens, NB13): > 10 µM
IC50 (NB5; Homo sapiens, NB5): > 10 µM
IC50 (NCI-H1155; Homo sapiens, NCI-H1155): > 10 µM
IC50 (NCI-H1304; Homo sapiens, NCI-H1304): > 10 µM
IC50 (NCI-H209; Homo sapiens, NCI-H209): > 10 µM
IC50 (NCI-H2126; Homo sapiens, NCI-H2126): > 10 µM
IC50 (SNU1): > 10 µM
IC50 (SNU-5; Homo sapiens, SNU-5): > 10 µM
IC50 (NH-12; Homo sapiens, NH-12): > 10 µM
IC50 (P30-OHK; Homo sapiens, P30-OHK): > 10 µM
IC50 (PSN1; Homo sapiens, PSN1): > 10 µM
IC50 (Ramos-2G6-4C10; Homo sapiens, Ramos-2G6-4C10): > 10 µM
IC50 (SBC-1; Homo sapiens, SBC-1): > 10 µM
IC50 (SCC-15; Homo sapiens, SCC-15): > 10 µM
IC50 (SK-N-FI; Homo sapiens, SK-N-FI): > 10 µM
IC50 (SK-NEP-1; Homo sapiens, SK-NEP-1): > 10 µM
IC50 (SNU-C2B; Homo sapiens, SNU-C2B): > 10 µM
IC50 (SW684; Homo sapiens, SW684): > 10 µM
IC50 (SW 954; Homo sapiens, SW 954): > 10 µM
IC50 (SW982; Homo sapiens, SW982): > 10 µM
IC50 (697; Homo sapiens): > 10 µM
IC50 (AM-38; Homo sapiens, AM-38): > 10 µM
IC50 (ATN-1; Homo sapiens, ATN-1): > 10 µM
IC50 (BT-474; Homo sapiens, BT-474): > 10 µM
IC50 (TE-8; Homo sapiens, TE-8): > 10 µM
IC50 (TE-9; Homo sapiens, TE-9): > 10 µM
IC50 (U-87 MG; Homo sapiens, U-87 MG): > 10 µM
IC50 (COLO-684; Homo sapiens, COLO-684): > 10 µM

CISPLATIN
IC50 (CTV-1; ctv-1): 34 µM
IC50 (CW-2; cw-2): 24.5 µM
IC50 (D283 Med; d283 med): 5.85 µM
IC50 (DJM-1; djm-1): 6.36 µM
IC50 (EC-GI-10; ec-gi-10): 13.2 µM
IC50 (ES4; es4): 1.6 µM
IC50 (EW-16; ew-16): 24.6 µM
IC50 (GCIY; gciy): 18.5 µM
IC50 (GT3TKB; gt3tkb): 3.92 µM
IC50 (HCC1187; hcc1187): 117 µM
IC50 (HEL; hel): 1.39 µM
IC50 (IA-LM; ia-lm): 23.1 µM
IC50 (KARPAS-299; karpas-299): 172 µM
IC50 (KS-1; ks-1): 28.3 µM
IC50 (LAN-6; lan-6): 256 µM
IC50 (LB2518-MEL; lb2518-mel): 116 µM
IC50 (MHH-PREB-1; mhh-preb-1): 23.8 µM
IC50 (MN-60; mn-60): 58.4 µM
IC50 (MSTO-211H; msto-211h): 57.1 µM
IC50 (NB13; nb13): 40.1 µM
IC50 (NB5; nb5): 5.48 µM
IC50 (NCI-H1155; nci-h1155): 22.7 µM
IC50 (NCI-H1304; nci-h1304): 9.85 µM
IC50 (NCI-H209; nci-h209): 0.537 µM
IC50 (NCI-H2126; nci-h2126): 221 µM
IC50 (NCI-H69; nci-h69): 231 µM
IC50 (SNU-5; snu-5): 141 µM
IC50 (NH-12; nh-12): 13.2 µM
IC50 (P30-OHK; p30-ohk): 2.71 µM
IC50 (PSN1; psn1): 1.68 µM
IC50 (Ramos-2G6-4C10; ramos-2g6-4c10): 26.5 µM
IC50 (SBC-1; sbc-1): 141 µM
IC50 (SCC-15; scc-15): 28.9 µM
IC50 (SK-N-FI; sk-n-fi): 313 µM
IC50 (SK-NEP-1; sk-nep-1): 7.18 µM
IC50 (SNU-C2B; snu-c2b): 38.4 µM
IC50 (SW684; sw684): 590 µM
IC50 (SW 954; sw 954): 11.1 µM
IC50 (SW982; sw982): 23.1 µM
IC50 697: 1.89 µM
IC50 (AM-38; am-38): 225 µM
IC50 (ATN-1; atn-1): 18.6 µM
IC50 (BT-474; bt-474): 1100 µM
IC50 (TE-8; te-8): 16.5 µM
IC50 (TE-9; te-9): 15.4 µM
IC50 (U-87 MG; u-87mg atcc): 16.2 µM
IC50 (COLO-684; colo-684): 29.1 µM

CN(C)C(=N)NC(=N)N [METFORMIN]
IC50 (CTV-1; Homo sapiens, CTV-1): 1970 µM
IC50 (CW-2; Homo sapiens, CW-2): 4120 µM
IC50 (D283 Med; Homo sapiens, D283 Med): > 20000 µM
IC50 (DJM-1; Homo sapiens, DJM-1): 10200 µM
IC50 (EC-GI-10; Homo sapiens, EC-GI-10): > 20000 µM
IC50 (ES4; Homo sapiens, ES4): > 20000 µM
IC50 (EW-16; Homo sapiens, EW-16): 6780 µM
IC50 (GCIY; Homo sapiens, GCIY): > 20000 µM
IC50 (GT3TKB; Homo sapiens, GT3TKB): > 20000 µM
IC50 (HCC1187; Homo sapiens, HCC1187): 14200 µM
IC50 (IA-LM; Homo sapiens, IA-LM): > 20000 µM
IC50 (KARPAS-299; Homo sapiens, KARPAS-299): > 20000 µM
IC50 (KS-1; Homo sapiens, KS-1): > 20000 µM
IC50 (LB2518-MEL; Homo sapiens, LB2518-MEL): > 20000 µM
IC50 (MHH-PREB-1; Homo sapiens, MHH-PREB-1): 11600 µM
IC50 (MN-60; Homo sapiens, MN-60): > 20000 µM
IC50 (MSTO-211H; Homo sapiens, MSTO-211H): > 20000 µM
IC50 (NB5; Homo sapiens, NB5): > 20000 µM
IC50 (NCI-H1155; Homo sapiens, NCI-H1155): 17700 µM
IC50 (NCI-H1304; Homo sapiens, NCI-H1304): 15600 µM
IC50 (NCI-H209; Homo sapiens, NCI-H209): 925 µM
IC50 (NCI-H2126; Homo sapiens, NCI-H2126): > 20000 µM
IC50 (NCI-H69; Homo sapiens, NCI-H69): 8560 µM
IC50 (SNU1): 8470 µM
IC50 (SNU-5; Homo sapiens, SNU-5): 3700 µM
IC50 (P30-OHK; Homo sapiens, P30-OHK): 2760 µM
IC50 (PSN1; Homo sapiens, PSN1): > 20000 µM
IC50 (Ramos-2G6-4C10; Homo sapiens, Ramos-2G6-4C10): > 20000 µM
IC50 (SBC-1; Homo sapiens, SBC-1): 6930 µM
IC50 (SCC-15; Homo sapiens, SCC-15): > 20000 µM
IC50 (SK-N-FI; Homo sapiens, SK-N-FI): > 20000 µM
IC50 (SK-NEP-1; Homo sapiens, SK-NEP-1): 15000 µM
IC50 (SNU-C2B; Homo sapiens, SNU-C2B): > 20000 µM
IC50 (SW 954; Homo sapiens, SW 954): > 20000 µM
IC50 (SW982; Homo sapiens, SW982): > 20000 µM
IC50 (697; Homo sapiens): 6500 µM
IC50 (AM-38; Homo sapiens, AM-38): > 20000 µM
IC50 (ATN-1; Homo sapiens, ATN-1): 8650 µM
IC50 (BT-474; Homo sapiens, BT-474): > 20000 µM
IC50 (TE-8; Homo sapiens, TE-8): > 20000 µM
IC50 (TE-9; Homo sapiens, TE-9): 10500 µM
IC50 (U-87 MG; Homo sapiens, U-87 MG): > 20000 µM
IC50 (COLO-684; Homo sapiens, COLO-684): > 20000 µM

From ChEMBL document CHEMBL1201861, “Genomics of Drug Sensitity in Cancer screening data, Wellcome Trust Sanger Institute”
